The values below come from US20020037864A1, “2'-Propionate clarithromycin dodecyl sulfate and its preparation and pharmaceutical composition containing the same” (priority 2000, published 2002).

Values after ≈ are worked out from the molar mass of the structure shown. Counter-ions that a name gives are not always drawn.

Series [1] deals with Streptococcus herbarum, Streptococcus haemolyticus, Staphylococcus aureus, Enterococcus faecalis, Staphylococcus epidermidis, Listeria monocytogenes, and ATCC …. In words: Antibacterial activity in vitro comparison assay, agar dilution method (NCCLS). It is filed as cell-based. As to conditions: for MIC50 / MIC90: agar dilution, panel of test strains. Here is the method:
The primary antibacterial activity in vitro comparison assay between compound (I) (named CES hereafter) and clarithromycin are performed by No. 1 Hospital of Zhejiang Medical University. The agar dilution method, according to the method recognized by NCCLS (“National clinical analysis criterion protocol” (2nd edition), Ye Yingwu and Wang Yusan ed., p562, Southeast University Press), is taken in the following pharmaceutical sensitivity tests against Streptococcus herbarum, Streptococcus haemolyticus, Staphylococcus aureus, Enterococcus faecalis, Staphylococcus epidermidis, Listeria monocytogenes, and ATCC 25923.
For orientation: In agar dilution the substance is mixed into plates at graded concentrations.

Series [2] deals with mice. In words: Maximal tolerance test. It is filed as in vivo. The protocol:
Acute toxicity animal trial to compound (I) of the present invention is carried out by using 20 KM mice (10 males) weighted 18-22 g. […] Subsequently, the maximal tolerance dose to mice is greater than 8 g/kg as maximal tolerance test determined. […] The mice restored gradually 3 days after administration of compound (I).

Series [3] in a line: Solubility (physical & chemical property). It is filed as physicochemical.
Series [4] is described as follows: pH value of aqueous mixture (Chinese Pharmacopoeia 2000, Annex VI H). As to conditions: 0.4 g added into 10 ml water. It is filed as physicochemical. The protocol:
The pH value of compound (I) of present invention is 5-7 as pH value analyzer (Model PHS-3C, Shanghai leici equipment factory) determined according to the method described in ANNEX VIH (on the measurement of pH value) to Chinese Pharmacopoeia (2000 edition), wherein compound (I) of present invention 0.4 g is added into 10 ml water and stirring extensively.

The nature of series [5]: Acute toxicity animal trial, oral administration. It is filed as in vivo. As to conditions: both sexes, mouse, in vivo, po; orally administrated to KM mice.
Series [6] concerns KM mice. In words: Acute toxicity animal trial, oral administration. It is filed as in vivo. As to conditions: mice after administration.
The subject of series [7] is mice and rat. The conditions noted are these: orally administrated to mice and rat; cited from earlier work.

A word on the MIC50: it is an inhibitory concentration at the 50% level, which refers to growth in some studies and to a panel of isolates in others. Low values mean higher susceptibility, high ones lower susceptibility. As usually defined, the LD50 is the dose expected to kill half of the subjects tested. Regarding `CCC(=O)OC1C(O[C@@H]2C(C)[C@H](OC3CC(C)(OC)C(O)C(C)O3)[C@@H](C)C(=O)O[C@H](CC)[C@@](C)(O)[C@H](O)C(C)C(=O)[C@H](C)C[C@@]2(C)OC)OC(C)CC1N(C)C` (some centres unmarked) [compound (I), 2′-propionate clarithromycin dodecyl sulfate], in series [1], the MIC50 turned out to be 0.25 µg/mL and the MIC90 result was “≧128 μg/ml”. Further, in series [1] (in vitro comparison), the “antibacterial activity relative to clarithromycin” value is listed as “comparable to that of clarithromycin”. In addition, the maximal tolerance dose entry in series [2] is listed as “greater than 8 g/kg”. Besides, in series [3], the “solubility in acetone, ethanol, methanol and chloroform” value is on record as “freely soluble”; the solubility in water result is recorded as “almost insoluble”. Besides, the pH value in series [4] is given as 5-7. This compound also came in with an LD50 in series [5] of more than 7500 mg/kg. In series [6], the death entry is on record as “no death was observed”; the signs after administration entry is “furriery flab, drowsiness, spiritless and reduced movement”; the “time to gradual restoration” value is recorded as 3 days.
Consider `CC[C@H]1OC(=O)[C@H](C)[C@@H](O[C@H]2C[C@@](C)(OC)[C@@H](O)[C@H](C)O2)[C@H](C)[C@@H](O[C@@H]2O[C@H](C)C[C@H](N(C)C)[C@H]2O)[C@](C)(OC)C[C@@H](C)C(=O)[C@H](C)[C@@H](O)[C@]1(C)O` [clarithromycin], for which, in series [1], the MIC50 came to 0.25 µg/mL (≈ 0.334 µM) and the MIC90 result is given as “≧128 μg/ml”. Also, the LD50 in series [7] was 2700 to 3500 mg/kg.
